How the values were obtained:
[1] = system: caspase-3; experiment: Caspase-3 activity in the liver tissue (DEVD-pNA substrate); type: in vivo, rat; conditions: rats, AAP 700 mg/kg; control group 100%
Experimental: Accordingly, to confirm the cell apoptosis when generating the liver injury by AAP, the activity of the caspase-3 is measured. For this, the liver tissue is homogenized by the lysis buffer (25 mM HEPES, pH 7.5, 5 mM EDTA, 2 mM DTT, 0.1% CHAPS) containing the protease inhibitor and centrifuged by 14,000×g at 4° C. The protein concentration of the obtained upper solution is measured by a BCA protein assay kit. Thereafter, 80[…] of protein is inserted into the 96-well, then the DEVD-pNA substrate is inserted, thereafter, a reaction is progressed for 4 hours at 37° C. The absorbance is measured at 405 nm.

[2] = system: DNA within the liver tissue; experiment: DNA fragmentation in the liver tissue; type: in vivo, rat; conditions: rats, AAP 700 mg/kg
Description: To confirm the modes of the cell apoptosis, DNA within the liver tissue is extracted and then the degree of fragmentation is examined.

[3] = system: liver tissue of a rat; experiment: Liver appearance and H&E histology of liver tissue, AAP induced liver injury; type: in vivo; conditions: rats, AAP 700 mg/kg abdominal administration, 24 hours
Experimental: For this, the liver tissue of the white rat bred by each experiment group is extracted and lightly washed by the saline solution so that blood is removed. A portion of the liver tissue is cut and then the cut liver tissue is cut into thickness of 0.5 cm and fixed into Bouin fixation solution. Thereafter, the cut liver tissue is inserted into a tissue capsule within 24 hours by using the same fixation solution and fixed again. Thereafter, the fixed tissue is washed, inserted into an autotechnicon, dehydrated in the sequencing concentration alcohol and processed transparently by xylene. At an embedding center, paraffin is infiltrated into the tissue capsule and an embedding process is performed, so that a block is manufactured. The block is cut thinly with thickness of 5[…] by a rotary microtome and the cut blocks are left in a floating thermostat in order to be spreaded fully and then attached onto a clean slide glass. Thereafter, to firmly adhere the slide glass and the tissue cut pieces, the slide glass with the tissue cut pieces is left at a slide warmer maintaining temperature of about 60° C. Finally, to basically observe the arrangement of cell and the morphological change, all tissue pieces are dyed by Hematoxylin & Eosin capable of separately seeing the nucleus and cytoplasm and thereafter, observed by an optical microscopy.

[4] = system: GOT and GPT in the serum; experiment: GOT and GPT in serum; type: in vivo, rat; conditions: rats, AAP 700 mg/kg, 24 hours
Experimental: GOT and GPT in the serum as liver function indicators are enzymes which reflect the change and necrosis of the liver cell and spilled in great quantities in the blood when damaging the liver tissue. GOT/GPT in the serum are measured by using a kit for measuring GOT (Glutamic oxaloacetic transaminase) and GPT (Glutamic pyruvic transaminase) activity measuring serum transaminase (Shinyang Chemistry, Republic of Korea) manufactured by Retiman-Frankle's manner through a spectrum photometer (Ultrospec 2001 pro. amersham phamasia biotech, United Kingdom) at 505 nm and then the result is shown in FIG. 4.

[5] = system: HepG2 cell; experiment: Cell apoptosis of the liver cell line by AAP (DAPI dyeing, DNA fragmentation); type: cell-based; conditions: HepG2, culture for 24 hours with AAP
Description: Accordingly, to confirm that the cell proliferation inhibition effect by AAP is a phenomenon by the cell apoptosis, the cell with AAP and cell with no AAP are washed by PBS by means of the characteristics in which only DNA within the cell nucleus, especially, only the cell apoptosis DNA is dyed. Thereafter, the cells are dyed by the DAPI solution and then observed by a fluorescent microscopy.
Specifically, the HepG2 cell treated by the seaweed protein is washed by PBS, fixed at the room temperature for 10 minutes by 3.7% of paraformaldehyde, and dyed by means of the 4,6-diamindino-2-phenylindole (DAPI)(sigma) solution as fluorescent materials for 10 minutes. These cells are again washed by twice and the form change of the nucleus thereof is compared with that of the normal group by means of a fluorescence microscope.
To examine the DNA fragmentation phenomenon, the seaweed protein purified by the example 1 is added to the liver cell by concentration (0˜100[…]/□), then cultured for 24 hours, and thereafter mixed with the homogenate (nuclear lysis buffer, 100 mM NaCl2, 40 mM Tris-Cl, pH 7.4, 20 mM EDTA, 0.5% SDS). […] 10[…] of DNA is treated by an electrophoresis manner (50V, 2 hours) in the agarose cell, dyed by editium bromide, and measured by means of ultraviolet rays and the like.

[6] = system: HepG2 liver cell; experiment: Proliferation of HepG2 liver cell by AAP treatment (MTS/MTT); type: cell-based; conditions: AAP in serum free medium, 24 hours and 48 hours, FIG. 7
Experimental: The used HepG2 liver cell is distributed by ATCC (American Type Culture Center).
Antibiotics (penicillin/streptomycin) of 100 units/ml is added to an MEM medium and then filtrated by a filter of 0.22[…]. Before the culture, FBS (Fetal bovine serum) is added, thereby obtaining the final concentration of 10%. The cell is cultured in a 5% CO2 incubator at 37° C. During the culture of the cell, the medium is replaced by twice a week and when the medium is a confluent state, the medium is washed by PBS (Phosphate Buffered Saline). Thereafter, the attached cells are separated by 0.05% of trypsin solution and centrifuged, then each cell is mixed, dispersed properly by using a pipet and divided identically.
To examine the cell proliferation and the toxicity, the HepG2 liver cell is controlled by concentration of 5×10^4 cells/ml, and divided into 96-well microplates (palcon, USA) by 100[…] per a well and cultured. After 24 hours, a medium is replaced with a serum free medium and then cultured again for 24 hours. A protein sample is dissolved into the serum free medium, then diluted until 0.01% concentration. The dilution solution by each concentration is added to each cell line and cultured for 24 hours at the 5% CO2 incubator at 37° C. […] Thereafter, the absorbance at 490 nm is measured by using an automatic ELIZA reader and the cell survival ratio is calculated by a calculation formula 1. […]

CC(=O)Nc1ccc(O)cc1 [AAP, Acetaminophen]
Activity of caspase-3 in the liver tissue [1]: 143.38±10.25% | DNA fragmentation in the liver tissue (FIG. 6(B)) [2]: a certain DNA fraction is observed | Colour/appearance of the liver (degree of liver injury, FIG. 2) [3]: the liver tissue represents the bright brown | Inside of the liver tissue by optical microscopy, H&E dyeing (FIG. 3) [3]: plural nucleus decomposition positions are observed about the central vein | GPT in serum ([4]; control group 28.83±7.9): 44.83±11.7 karmen | GOT in serum ([4]; control group 158.97±13.4): 187.95±20.7 karmen | Cell apoptosis by DAPI dyeing (FIG. 8) [5]: many cell apoptosis modes with the red color are formed | DNA fragmentation in liver cell (FIG. 8) [5]: The DNA fractions are confirmed identically | Proliferation of the HepG2 liver cell [6]: inhibited according to increase of the AAP concentration and the culture time

— patent publication US8758769B2, “Composition for preventing and treating acetaminophen inducing liver injury comprising the protein extract from Porphyra yezoensis” (Pukyong National University Industry Academic Cooperation …, priority 2006, dated 2014)
